What was measured:
HIV-IIIb = experiment: Test A: Antiviral assay in MT4 cells; type: cell-based, HIV-1; details: MT-4 cells infected with HIV-IIIb, 5 days, CellTiter-Glo; for % inhibition at 2 μM: percent inhibition of virus-induced cell killing, from dose response curve at 2 uM drug; for inhibition at 2 µM: Human immunodeficiency virus 1, IIIB, MT4, 120 h, read-out: % inhibition at 2 μM, percent inhibition of virus-induced cell killing, from dose response curve at 2 uM drug
MT-4 cells = experiment: in vitro; details: uninfected MT-4 cells, same protocol as Test A, 5 days, CellTiter-Glo
Procedure, shortened: (§1)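 Cytoprotection read-out: CellTiter-Glo chemiluminescence after 5 days at 37 °C of HIV-IIIb-infected MT-4 cells (m.o.i. 0.003) with compound in 10-point 3-fold dilutions, quadruplicate, 10% FBS. Cytotoxicity (CC50) measured identically without virus.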

in vitro = details: human, uninfected MT-4 cells, CC50 (nM), same protocol as Test A, CellTiter-Glo
Procedure, shortened: as §1

Row | Molecule | % inhibition at 2 μM (HIV-IIIb) | CC50 (MT-4 cells) | inhibition at 2 µM (HIV-IIIb) | CC50 at 5 days (in vitro)
1 | NC(=O)c1cc(-c2cccnc2[C@H](Cc2cc(F)cc(F)c2)NC(=O)C(c2ccccc2)C2CCCC2)ccc1F (single isomer, unassigned) [Example 552] | 8% | 11 µM | – | –
2 | NC(=O)c1cc(-c2cccnc2[C@H](Cc2cc(F)cc(F)c2)NC(=O)Cn2nc(C(F)(F)F)c3c2C(O)C2CC32)ccc1F (stereo partly drawn) [Example 156, 5-(2-((1S)-2-(3,5-difluorophenyl)-1-(2-(5-hydroxy-3-(trifluoromethyl)-3b,4,4a,5-tetrahydro-1H-cyclopropa[3,4]cyclopenta[1,2-c]pyrazol-1-yl)acetamido)ethyl)pyridin-3-yl)-2-fluorobenzamide] | 30% | 39.2 µM | – | –
3 | O=C(N[C@@H](Cc1cc(F)cc(F)c1)c1ncccc1-c1ccc(Cl)cc1)C(c1c[nH]c2ccc(F)cc12)C(F)(F)F (single isomer, unassigned) [Example 36G] | 0% | 6.93 µM | – | –
4 | CCC(C(=O)N[C@@H](Cc1cc(F)cc(F)c1)c1ncccc1-c1ccc(F)c(C(N)=O)c1)n1cc(C(F)(F)F)cn1 (single isomer, unassigned) [Example 566] | 3% | 23.7 µM | – | –
5 | O=C(Cn1nc(C(F)F)c2c1C1CC1CC2)NC(Cc1cc(F)cc(F)c1)c1ncncc1-c1cnc2[nH]ccc2c1 (single isomer, unassigned) [Example 348] | 103% | 14.2 µM | – | –
6 | CCC(C(=O)N[C@@H](Cc1cc(F)cc(F)c1)c1ncccc1-c1ccc(F)c(C(N)=O)c1)n1ccc(C(F)(F)F)n1 (single isomer, unassigned) [Example 573] | 18% | 30.1 µM | – | –
7 | Cc1cc2ncn(C(CC(F)(F)F)C(=O)N[C@@H](Cc3cc(F)cc(F)c3)c3ncccc3-c3ccc(F)c(C(N)=O)c3)c2cc1C (single isomer, unassigned) [Example 571] | 2% | 34.8 µM | – | –
8 | CCCCC(C(=O)N[C@@H](Cc1cc(F)cc(F)c1)c1ncccc1-c1ccc(F)c(C(N)=O)c1)n1ccc(C(F)(F)F)n1 (single isomer, unassigned) [Example 488] | 8% | 12.4 µM | – | –
9 | Cc1cc(-c2cccnc2[C@H](Cc2cc(F)cc(F)c2)NC(=O)Cc2c[nH]c3ccc(F)cc23)cnc1F [Example 399] | 31% | 12.8 µM | – | –
10 | NC(=O)c1cc(-c2cccnc2[C@H](Cc2cc(F)cc(F)c2)NC(=O)Cn2nc(C(F)F)c3c2C2CC2C3)ccc1F (stereo partly drawn) [Example 163C, 5-(2-((1S)-1-(2-(3-(difluoromethyl)-4,4-a,5,5a-tetrahydro-1H-cyclopropa[4,5]cyclopenta[1,2-c]pyrazol-1-yl)acetamido)-2-(3,5-difluorophenyl)ethyl)pyridin-3-yl)-2-fluorobenzamide] | 105% | 27.4 µM | – | –
11 | CNS(=O)(=O)c1ccc(-c2cccnc2C(Cc2cc(F)cc(F)c2)NC(=O)Cn2nc(C(F)F)c3c2C(F)(F)C2C[C@H]32)cc1 (stereo partly drawn) [Example 429, (S)—N-(1-(3-(4-(N-methylsulfamoyl)phenyl)-pyridin-2-yl)-2-(3,5-difluorophenyl)ethyl)-2-(3-(difluoromethyl)-5,6-dihydro-4,5-(methano)-6,6-difluoro-cyclopenta[c]pyrazol-1(4H)-yl)acetamide] | 57% | 41.6 µM | – | –
12 | NC(=O)c1cc(-c2cccnc2[C@H](Cc2cc(F)cc(F)c2)NC(=O)Cn2nc(C(F)(F)F)c3c2[C@H]2C[C@H]2C3)ccc1F (single isomer, unassigned) [Example 186] | 80% | 16.8 µM | – | –
13 | CCC(C(=O)N[C@@H](Cc1cc(F)cc(F)c1)c1ncccc1-c1ccc(F)c(C(N)=O)c1)n1nc(C(F)F)cc1C(F)F (single isomer, unassigned) [Example 484] | 25% | 27.4 µM | – | –
14 | O=C(Cn1nc(C(F)F)c2c1C1CC1CC2)NC(Cc1cc(F)cc(F)c1)c1ncncc1-c1cnc2[nH]ccc2c1 (single isomer, unassigned) [Example 347] | 1% | 19.4 µM | – | –
15 | CC(C)CC(C(=O)N[C@@H](Cc1cc(F)cc(F)c1)c1ncccc1-c1ccc(F)c(C(N)=O)c1)n1ccc(C(F)(F)F)n1 (single isomer, unassigned) [Example 582] | 5% | 14.4 µM | – | –
16 | CC12CCC(c3c(C(F)(F)F)nn(CC(=O)N[C@@H](Cc4cc(F)cc(F)c4)c4ncccc4-c4ccc(F)c(C(N)=O)c4)c31)C2(C)C (stereo partly drawn) [Example 93B, (S)-5-(2-(2-(3,5-difluorophenyl)-1-(2-(D-4,5,6,7-Tetrahydro-3-trifluoromethyl-7,8,8-trimethyl-1H-4,7-(methano)indazol-1-yl)acetamido)ethyl)pyridin-3-yl)-2-fluorobenzamide] | 0% | 8.14 µM | – | –
17 | NC(=O)c1cc(-c2cccnc2[C@H](Cc2cc(F)cc(F)c2)NC(=O)Cn2nc(C(F)(F)F)c3c2C(O)C2CC32)ccc1F (stereo partly drawn) [Example 155, 5-(2-((1S)-2-(3,5-difluorophenyl)-1-(2-(5-hydroxy-3-(trifluoromethyl)-3b,4,4a,5-tetrahydro-1H-cyclopropa[3,4]cyclopenta[1,2-c]pyrazol-1-yl)acetamido)ethyl)pyridin-3-yl)-2-fluorobenzamide] | 97% | 37 µM | – | –
18 | CC(C)CC(=O)NS(=O)(=O)c1ccc(-c2cccnc2C(Cc2cc(F)cc(F)c2)NC(=O)Cn2nc(C(F)F)c3c2C(F)(F)C2C[C@H]32)cc1 (stereo partly drawn) [Example 427, (S)—N-(1-(3-(4-(N-(3-methylbutanoyl)sulfamoyl)phenyl)-pyridin-2-yl)-2-(3,5-difluorophenyl)ethyl)-2-(3-(difluoromethyl)-5,6-dihydro-4,5-(methano)-6,6-difluoro-cyclopenta[c]pyrazol-1(4H)-yl)acetamide] | 0% | 32.8 µM | – | –
19 | NC(=O)c1cccc(-c2cccnc2[C@H](Cc2cc(F)cc(F)c2)NC(=O)CC2C(=O)Nc3ccccc32)c1 (stereo partly drawn) [Example 192, 3-(2-((1S)-2-(3,5-difluorophenyl)-1-(2-(2-oxoindolin-3-yl)acetamido)ethyl)pyridin-3-yl)benzamide] | 2% | 47.6 µM | – | –
20 | CCC(C(=O)N[C@@H](Cc1cc(F)cc(F)c1)c1ncccc1-c1ccc(F)c(C(N)=O)c1)n1ccnc1C(C)C (single isomer, unassigned) [Example 586] | 1% | > 53.2 µM | – | –
21 | CCC(C(=O)N[C@@H](Cc1cc(F)cc(F)c1)c1ncccc1-c1ccc(F)c(C(N)=O)c1)n1nc(C(F)(F)F)c2c1CCCC2 (single isomer, unassigned) [Example 532] | 9% | 12.2 µM | – | –
22 | CN(C)C(C(=O)N[C@@H](Cc1cc(F)cc(F)c1)c1ncccc1-c1ccc(F)c(C(N)=O)c1)c1ccc(F)cc1 (single isomer, unassigned) [Example 590] | 13% | 38.6 µM | – | –
23 | (S)—N-(1-(3-(4-(pyrrolidinylcarbonylamino)phenyl)-pyridin-2-yl)-2-(3,5-difluorophenyl)ethyl)-2-(3-(difluoromethyl)-5,6-dihydro-4,5-(methano)-6,6-difluoro-cyclopenta[c]pyrazol-1(4H)-yl)acetamide [Example 80] | 0% | > 53.2 µM | – | –
24 | CCC(C(=O)N[C@@H](Cc1cc(F)cc(F)c1)c1ncccc1-c1ccc(F)c(C(N)=O)c1)n1cc(C(C)=O)c2ccccc21 (stereo partly drawn) [Example 544, 5-(2-((1S)-1-(2-(3-acetyl-1H-indol-1-yl)butanamido)-2-(3,5-difluorophenyl)ethyl)pyridin-3-yl)-2-fluorobenzamide] | 75% | > 53.2 µM | – | –
25 | NC(=O)c1cc(-c2cccnc2[C@H](Cc2cc(F)cc(F)c2)NC(=O)Cn2nc(C(F)F)c3c2CC2CC32)ccc1F (single isomer, unassigned) [Example 249] | 100% | 23.4 µM | – | –
26 | Cc1ccc2c(c1C)NC(=O)C2CC(=O)N[C@@H](Cc1cc(F)cc(F)c1)c1ncccc1-c1ccc(F)c(C(N)=O)c1 (stereo partly drawn) [Example 221, 5-(2-((1S)-2-(3,5-difluorophenyl)-1-(2-(6,7-dimethyl-2-oxoindolin-3-yl)acetamido)ethyl)pyridin-3-yl)-2-fluorobenzamide] | – | – | 1% | 40500 nM
27 | CC(C)Cc1ccc(-c2cccnc2[C@H](Cc2cc(F)cc(F)c2)NC(=O)Cc2c[nH]c3ccc(F)cc23)cc1 [Example 103, (S)—N-(2-(3,5-difluorophenyl)-1-(3-(4-isobutylphenyl)pyridin-2-yl)ethyl)-2-(5-fluoro-1H-indol-3-yl)acetamide] | – | – | 0% | 5170 nM
28 | Cc1ccccc1-c1ccnc(C(Cc2cc(F)cc(F)c2)NC(=O)Cn2nc(C(F)(F)F)c3c2CCCC3)n1 (stereo not shown) [Example 12, N-(2-(3,5-difluorophenyl)-1-(4-o-tolylpyrimidin-2-yl)ethyl)-2-(3-(trifluoromethyl)-4,5,6,7-tetrahydro-1H-indazol-1-yl)acetamide] | – | – | 0% | 8980 nM
29 | CC(C)(C)OC(=O)N1[C@@H](c2ccccc2)CC[C@H]1C(=O)N[C@@H](Cc1cc(F)cc(F)c1)c1ncccc1-c1ccc(F)c(C(N)=O)c1 [Example 139, (2S,5R)-tert-butyl 2-((S)-1-(3-(3-carbamoyl-4-fluorophenyl)pyridin-2-yl)-2-(3,5-difluorophenyl)ethylcarbamoyl)-5-phenylpyrrolidine-1-carboxylate] | – | – | 8% | 14000 nM

From US9540343B2 (Gilead Sciences, Inc., priority 2011, dated 2017)
